For 5 molecules, Activity and Km results are on record in ChEMBL document CHEMBL2074307, “Characterization of drug transport by the human multidrug resistance protein 3 (ABCC3)” (J Biol Chem, 2001).

Data set [1] deals with Multidrug resistance associated protein (Homo sapiens) (UniProt Q96QA9). Briefly: TP_TRANSPORTER: increase in Etoposide intracellular accumulation (Etoposide: 2 uM, Indomethacin: 500 uM) in MRP3-expressing fibroblast from kidney of mdr1a/1b and mrp1 (-/-) mouse. Conditions: mdr1a/1b (-/-) and mrp1 (-/-) fibroblasts. The class given is functional, cell-based.
Data set [2] shares this target. Briefly: TP_TRANSPORTER: increase in Etoposide intracellular accumulation (Etoposide: 2 uM, Sulfinpyrazone: 2000 uM) in MRP3-expressing fibroblast from kidney of mdr1a/1b and mrp1 (-/-) mouse. The class given is functional, cell-based. Conditions: mdr1a/1b (-/-) and mrp1 (-/-) fibroblasts.
Data set [3] shares this target. Briefly: (§1) TP_TRANSPORTER: uptake in membrane vesicle from MRP3-expressing Sf9 cells. In kind it is functional, cell membranes.
Data set [4] shares this target. Briefly: TP_TRANSPORTER: efflux in MRP3-expressing fibroblast from kidney of mdr1a/1b and mrp1 (-/-) mouse. In kind it is functional, cell-based. The following applies: mdr1a/1b (-/-) and mrp1 (-/-) fibroblasts.
Substrate in data set [5]: COc1cc([C@@H]2c3cc4c(cc3[C@@H](O[C@@H]3O[C@@H]5CO[C@@H](C)O[C@H]5[C@H](O)[C@H]3O)[C@H]3COC(=O)[C@H]23)OCO4)cc(OC)c1O[C@@H]1O[C@H](C(=O)O)[C@@H](O)[C@H](O)[C@H]1O
Described as §1. In kind it is functional, cell membranes.

Substrate in data set [6]: C[C@]12CC[C@@H]3c4ccc(O)cc4CC[C@H]3[C@@H]1CC[C@@H]2O[C@@H]1O[C@H](C(=O)O)[C@@H](O)[C@H](O)[C@H]1O
Described as §1. In kind it is functional, cell membranes.

Regarding `COc1ccc2c(c1)c(CC(=O)O)c(C)n2C(=O)c1ccc(Cl)cc1`, the Activity result in data set [1] was “inhibitor [[…] -> […] % of control (clone#38), 30 -> […] % of control (clone#77)]”.

Consider `O=C1C(CC[S+]([O-])c2ccccc2)C(=O)N(c2ccccc2)N1c1ccccc1` (stereo unspecified), for which the Activity result in data set [2] is “inhibitor [18 -> 83 % of control (clone#38), 30 -> 77 % of control (clone#77)]”. `N[C@@H](CCC(=O)N[C@@H](CS)C(=O)NCC(=O)O)C(=O)O`: the Activity entry in data set [3] was “is not a substrate [-]”.

On to `COc1cc([C@@H]2c3cc4c(cc3[C@@H](O[C@@H]3O[C@@H]5CO[C@@H](C)O[C@H]5[C@H](O)[C@H]3O)[C@H]3COC(=O)[C@H]23)OCO4)cc(OC)c1O`, for which the Activity entry in data set [4] is “substrate [+]”.

B1: Multidrug resistance associated protein (Homo sapiens), Q96QA9 (protein)
chain: MDALCGSGELGSKFWDSNLSVHTENPDLTPCFQNSLLAWVPCIYLWVALPCYLLYLRHHCRGYIILSHLSKLKMVLGVLLWCVSWADLFYSFHGLVHGRAPAPVFFVTPLVVGVTMLLATLLIQYERLQGVQSSGVLIIFWFLCVVCAIVPFRSKILLAKAEGEISDPFRFTTFYIHFALVLSALILACFREKPPFFSAKNVDPNPYPETSAGFLSRLFFWWFTKMAIYGYRHPLEEKDLWSLKEEDRSQMVVQQLLEAWRKQEKQTARHKASAAPGKNASGEDEVLLGARPRPRKPSFLKALLATFGSSFLISACFKLIQDLLSFINPQLLSILIRFISNPMAPSWWGFLVAGLMFLCSMMQSLILQHYYHYIFVTGVKFRTGIMGVIYRKALVITNSVKRASTVGEIVNLMSVDAQRFMDLAPFLNLLWSAPLQIILAIYFLWQNLGPSVLAGVAFMVLLIPLNGAVAVKMRAFQVKQMKLKDSRIKLMSEILNGIKVLKLYAWEPSFLKQVEGIRQGELQLLRTAAYLHTTTTFTWMCSPFLVTLITLWVYVYVDPNNVLDAEKAFVSVSLFNILRLPLNMLPQLISNLTQASVSLKRIQQFLSQEELDPQSVERKTISPGYAITIHSGTFTWAQDLPPTLHSLDIQVPKGALVAVVGPVGCGKSSLVSALLGEMEKLEGKVHMKGSVAYVPQQAWIQNCTLQENVLFGKALNPKRYQQTLEACALLADLEMLPGGDQTEIGEKGINLSGGQRQRVSLARAVYSDADIFLLDDPLSAVDSHVAKHIFDHVIGPEGVLAGKTRVLVTHGISFLPQTDFIIVLADGQVSEMGPYPALLQRNGSFANFLCNYAPDEDQGHLEDSWTALEGAEDKEALLIEDTLSNHTDLTDNDPVTYVVQKQFMRQLSALSSDGEGQGRPVPRRHLGPSEKVQVTEAKADGALTQEEKAAIGTVELSVFWDYAKAVGLCTTLAICLLYVGQSAAAIGANVWLSAWTNDAMADSRQNNTSLRLGVYAALGILQGFLVMLAAMAMAAGGIQAARVLHQALLHNKIRSPQSFFDTTPSGRILNCFSKDIYVVDEVLAPVILMLLNSFFNAISTLVVIMASTPLFTVVILPLAVLYTLVQRFYAATSRQLKRLESVSRSPIYSHFSETVTGASVIRAYNRSRDFEIISDTKVDANQRSCYPYIISNRWLSIGVEFVGNCVVLFAALFAVIGRSSLNPGLVGLSVSYSLQVTFALNWMIRMMSDLESNIVAVERVKEYSKTETEAPWVVEGSRPPEGWPPRGEVEFRNYSVRYRPGLDLVLRDLSLHVHGGEKVGIVGRTGAGKSSMTLCLFRILEAAKGEIRIDGLNVADIGDPILFSGTLRMNLDPFGSYSEEDIWWALELSHLHTFVSSQPAGLDFQCSEGGENLSVGQRQLVCLARALLRKSRILVLDEATAAIDLETDNLIQATIRTQFDTCTVLTIAHRLNTIMDYTRVLVLDKGVVAEFDSPANLIAARGIFYGMARDAGLA
As to B1, the Km turned out to be 11.4 µM in data set [5] and 17.7 µM in data set [6].

What is called Km is the concentration of substrate that gives half-maximal velocity.
